Measured values published in ChEMBL document CHEMBL1123486, “Probes for narcotic receptor mediated phenomena. 9. Synthesis of (+/-)-(3 alpha,6a alpha,11a beta)-1,3,4,5,6,11a-hexahydro-2-methyl-2H-3,6a- methanobenzofuro[2,3-c]azocin-10-ol, an oxide-bridged 5-(m-hydroxyphenyl)morphan” (J Med Chem, 1986).

Target: Opioid receptor (Rattus norvegicus, UniProt P33533+P34975+P33535)
Test: Binding affinity towards opioid receptor
Format: protein assay

| Structure (SMILES) | IC50 [nM] |
| --- | --- |
| CN1CC2Oc3cc(O)ccc3[C@@]23CCCC1C3 (stereo partly drawn) | 1000 |
| CN1CC[C@@]23CC1CC[C@@H]2Oc1c(O)cccc13 | 1766 |
| CN1CC[C@]23CCCC1[C@H]2Oc1c(O)cccc13 | 96 |
